Experimental data from US12509454B2, “Thiadiazolyl derivatives” (IDEAYA Biosciences, Inc., priority 2019, dated 2025).

Target: Pol theta (1-899) (Homo sapiens (Human), UniProt O75417)
Assay: Pol theta ATPase activity, NADH oxidation-coupled enzymatic assay
Format: biochemical
Conditions: Pol theta (1-899) 10 nM, ATP, dT50 ssDNA, absorbance 340 nm, 10-point dilution series; read-out: ATPase NADH coupling:Standard Screening:hPolQ IC50
Procedure: The ability of the compounds of Formula (I) to inhibit ATPase activity of Pol theta (1-899) was determined using the assay described below.
Pol Theta ATPase activity was determined by measuring the rate of ATP turn over in a NADH oxidation-coupled enzymatic assay. 10-point dilution series of compounds were used in a 384 well format for the inhibition assays. Pol theta (1-899) (10 nM) in assay buffer (20 mM Tris HCl (pH 7.80), 80 mM KCl, 10 mM MgCl2, 1 mM DTT, 0.01% BSA, 0.01% Tween, 5% glycerol) was transferred to the test wells (20 μL), except the low control wells (20 μL of assay buffer was added to the low control wells). The plate was then incubated at room temperature for 15 min. An equal volume (20 μL) of 100 μM ATP, 300 nM dT50 (single-stranded DNA (ssDNA) containing 50 thymine bases), 300 μM NADH, 6 mM PEP, 10 U/mL lactate dehydrogenase and 20 U/mL pyruvate kinase in assay buffer was added to all the test wells. The plate was then centrifuged at 1000 rpm for 1 min. The reaction was monitored for 30 min by measuring absorbance (λ=340 nm) in a Tecan Spark multimode plate reader every minute. The high control (DMSO with enzyme) with low absorbance intensity represents no inhibition of ATPase reaction while the low control (DMSO with buffer) with high absorbance intensity represents full inhibition of ATPase activity. Slope of the reaction progress curves were used to calculate the rate of ATP hydrolysis. The rates were used to determine the percent inhibition using a four-parameter inhibition model to generate IC50, Hill slope and max inhibition.

Pol theta (1-899), sequence (O75417 1-899): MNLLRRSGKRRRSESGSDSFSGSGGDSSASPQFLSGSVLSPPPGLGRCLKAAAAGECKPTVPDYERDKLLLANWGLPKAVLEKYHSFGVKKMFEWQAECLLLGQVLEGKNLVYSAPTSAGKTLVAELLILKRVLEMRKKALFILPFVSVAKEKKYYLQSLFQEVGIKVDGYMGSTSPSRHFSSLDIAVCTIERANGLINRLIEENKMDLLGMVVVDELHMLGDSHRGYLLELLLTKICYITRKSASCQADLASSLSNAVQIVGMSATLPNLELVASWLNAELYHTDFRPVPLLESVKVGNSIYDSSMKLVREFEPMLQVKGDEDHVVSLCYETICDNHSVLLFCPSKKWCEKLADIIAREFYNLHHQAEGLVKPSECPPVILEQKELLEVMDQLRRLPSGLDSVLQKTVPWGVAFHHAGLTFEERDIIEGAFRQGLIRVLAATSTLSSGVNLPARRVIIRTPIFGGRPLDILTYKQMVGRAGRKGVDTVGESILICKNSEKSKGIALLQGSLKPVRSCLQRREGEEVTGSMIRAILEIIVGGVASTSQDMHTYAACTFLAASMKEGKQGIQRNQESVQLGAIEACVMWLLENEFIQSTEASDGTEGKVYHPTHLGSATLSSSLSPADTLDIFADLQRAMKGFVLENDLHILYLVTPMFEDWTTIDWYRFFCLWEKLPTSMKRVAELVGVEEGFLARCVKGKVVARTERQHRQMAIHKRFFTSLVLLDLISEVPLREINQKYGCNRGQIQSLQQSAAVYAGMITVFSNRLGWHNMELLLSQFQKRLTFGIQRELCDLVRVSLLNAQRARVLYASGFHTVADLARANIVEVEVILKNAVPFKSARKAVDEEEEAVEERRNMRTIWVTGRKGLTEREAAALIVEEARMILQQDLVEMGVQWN

Row | IC50 [nM] | SMILES
1 | ≤ 200 | O=C(Nc1nnc(OCc2ccc(Cl)cc2)s1)c1ccncc1[C@@]12CCOC[C@@H]1C2 (mixture of isomers) [Example 175, 3-((1R,6S)-3-oxabicyclo[4.1.0]heptan-6-yl)-N-(5-((4-chlorobenzyl)oxy)-1,3,4-thiadiazol-2-yl)isonicotinamide and 3-((1S,6R)-3-oxabicyclo[4.1.0]heptan-6-yl)-N-(5-((4-chlorobenzyl)oxy)-1,3,4-thiadiazol-2-yl)isonicotinamide]
2 | 200 to 500 | CC1COCCN1c1ncccc1C(=O)Nc1nnc(OCc2ccc(Cl)cc2)s1 (racemic) [Example 5, (R) N-(5-((4-chlorobenzyl)oxy)-1,3,4-thiadiazol-2-yl)-2-(3-methylmorpholino)-nicotinamide and (S)—N-(5-((4-chlorobenzyl)oxy)-1,3,4-thiadiazol-2-yl)-2-(3-methylmorpholino)nicotinamide]
3 | 200 to 500 | CC1CN(c2ncccc2C(=O)Nc2nnc(OCc3ccc(Cl)cc3)s2)CCO1 (racemic) [Example 7, (R)—N-(5-((4-chlorobenzyl)oxy)-1,3,4-thiadiazol-2-yl)-2-(2-methylmorpholino)nicotinamide and (S)—N-(5-((4-chlorobenzyl)oxy)-1,3,4-thiadiazol-2-yl)-2-(2-methylmorpholino)nicotinamide]
4 | 200 to 500 | CC1CN(c2ncccc2C(=O)Nc2nnc(OCc3ccc(Cl)cc3)s2)CC(=O)N1 (racemic) [Example 46, (R) N-(5-((4-chlorobenzyl)oxy)-1,3,4-thiadiazol-2-yl)-2-(3-methyl-5-oxopiperazin-1-yl)nicotinamide and (S) N-(5-((4-chlorobenzyl)oxy)-1,3,4-thiadiazol-2-yl)-2-(3-methyl-5-oxopiperazin-1-yl)nicotinamide]
5 | 200 to 500 | CC1C(=O)NCCN1c1ncccc1C(=O)Nc1nnc(OCc2ccc(Cl)cc2)s1 (racemic) [Example 52, (R) N-(5-((4-chlorobenzyl)oxy)-1,3,4-thiadiazol-2-yl)-2-(2-methyl-3-oxopiperazin-1-yl)nicotinamide and (S) N-(5-((4-chlorobenzyl)oxy)-1,3,4-thiadiazol-2-yl)-2-(2-methyl-3-oxopiperazin-1-yl)nicotinamide]
6 | 500 to 1000 | O=C(Nc1nnc(OCc2ccc(Cl)cc2)s1)c1cccnc1N1CCN2C(=O)CCC2C1 (racemic) [Example 57, (R) N-(5-((4-chlorobenzyl)oxy)-1,3,4-thiadiazol-2-yl)-2-(6-oxohexahydropyrrolo[1,2-a]pyrazin-2(1H)-yl)nicotinamide and (S) N-(5-((4-chlorobenzyl)oxy)-1,3,4-thiadiazol-2-yl)-2-(6-oxohexahydropyrrolo[1,2-a]pyrazin-2(1H)-yl)nicotinamide]
7 | ≤ 200 | CC1CNC(=O)CN1c1ncccc1C(=O)Nc1nnc(OCc2ccc(Cl)cc2)s1 (racemic) [Example 60, (R) N-(5-((4-chlorobenzyl)oxy)-1,3,4-thiadiazol-2-yl)-2-(2-methyl-5-oxopiperazin-1-yl)nicotinamide and (S) N-(5-((4-chlorobenzyl)oxy)-1,3,4-thiadiazol-2-yl)-2-(2-methyl-5-oxopiperazin-1-yl)nicotinamide]
8 | 200 to 500 | COc1ccccc1-c1cc([C@@H](C)O)ncc1C(=O)Nc1nnc(OCc2ccc(Cl)cc2)s1 (racemic) [Example 167, N-[5-[(4-chlorophenyl)methoxy]-1,3,4-thiadiazol-2-yl]-6-(1-hydroxyethyl)-4-(2-methoxyphenyl)pyridine-3-carboxamide]
9 | ≤ 200 | C[C@@H]1C(=O)NCCN1c1cnccc1C(=O)Nc1nnc(OCc2ccc(Cl)cn2)s1 (racemic) [Example 179, (S)—N-(5-((5-chloropyridin-2-yl)methoxy)-1,3,4-thiadiazol-2-yl)-3-(2-methyl-3-oxopiperazin-1-yl)isonicotinamide and (R)—N-(5-((5-chloropyridin-2-yl)methoxy)-1,3,4-thiadiazol-2-yl)-3-(2-methyl-3-oxopiperazin-1-yl)isonicotinamide]
10 | 1000 to 10000 | O=C(Nc1nnc(OCc2ccc(Cl)cc2)s1)c1cccnc1N1CCN2C(=O)CC[C@H]2C1 (single isomer, unassigned) [Example 69, (R)—N-(5-((4-chlorobenzyl)oxy)-1,3,4-thiadiazol-2-yl)-2-(6-oxohexahydropyrrolo[1,2-a]pyrazin-2(1H)-yl)nicotinamide or (S)—N-(5-((4-chlorobenzyl)oxy)-1,3,4-thiadiazol-2-yl)-2-(6-oxohexahydropyrrolo[1,2-a]pyrazin-2(1H)-yl)nicotinamide]
11 | 500 to 1000 | O=C(Nc1nnc(OCc2ccc(Cl)cc2)s1)c1cccnc1N1CCN2C(=O)CC[C@@H]2C1 (single isomer, unassigned) [Example 70, (R)—N-(5-((4-chlorobenzyl)oxy)-1,3,4-thiadiazol-2-yl)-2-(6-oxohexahydropyrrolo-[1,2-a]pyrazin-2(1H)-yl)nicotinamide or (S)—N-(5-((4-chlorobenzyl)oxy)-1,3,4-thiadiazol-2-yl)-2-(6-oxohexahydropyrrolo[1,2-a]pyrazin-2(1H)-yl)nicotinamide]
12 | 1000 to 10000 | O=C(Nc1nnc(OCc2ccc(F)cc2)s1)c1cccnc1N1CCOCC1 [Example 1, N-(5-((4-fluorobenzyl)oxy)-1,3,4-thiadiazol-2-yl)-2-morpholinonicotinamide]
13 | 500 to 1000 | O=C(Nc1nnc(OCc2ccc(Cl)cc2)s1)c1cccnc1N1CCOCC1 [Example 2, N-(5-((4-chlorobenzyl)oxy)-1,3,4-thiadiazol-2-yl)-2-morpholinonicotinamide]
14 | 1000 to 10000 | O=C(Nc1nnc(OCc2ccc(Cl)cn2)s1)c1cccnc1N1CCOCC1 [Example 3]
15 | 500 to 1000 | O=C(Nc1nnc(OCc2ccc(Cl)cc2)s1)c1cncn1-c1ccccc1 [Example 4, N-(5-((4-chlorobenzyl)oxy)-1,3,4-thiadiazol-2-yl)-1-phenyl-1H-imidazole-5-carboxamide]
16 | 200 to 500 | O=C(Nc1nnc(OCc2ccc(Cl)cc2)s1)c1cccnc1N1CCCOCC1 [Example 6, N-(5-((4-chlorobenzyl)oxy)-1,3,4-thiadiazol-2-yl)-2-(1,4-oxazepan-4-yl)nicotinamide]
17 | 1000 to 10000 | O=C(Nc1nnc(OCc2ccc(Cl)nc2)s1)c1cccnc1N1CCOCC1 [Example 8, N-(5-((6-chloropyridin-3-yl)methoxy)-1,3,4-thiadiazol-2-yl)-2-morpholinonicotinamide]
18 | 200 to 500 | C[C@@H]1COCCN1c1ncccc1C(=O)Nc1nnc(OCc2ccc(Cl)cc2)s1 [Example 9, (R)—N-(5-((4-chlorobenzyl)oxy)-1,3,4-thiadiazol-2-yl)-2-(3-methylmorpholino)nicotinamide]
19 | 500 to 1000 | C[C@H]1COCCN1c1ncccc1C(=O)Nc1nnc(OCc2ccc(Cl)cc2)s1 [Example 10, (S)—N-(5-((4-chlorobenzyl)oxy)-1,3,4-thiadiazol-2-yl)-2-(3-methyl-morpholino)nicotinamide]
20 | 1000 to 10000 | O=C(Nc1nnc(OCc2ccc(Cl)cc2)s1)c1cccnc1-n1cnnn1 [Example 11, N-(5-((4-chlorobenzyl)oxy)-1,3,4-thiadiazol-2-yl)-2-(1H-tetrazol-1-yl)nicotinamide]
21 | 200 to 500 | COc1ccc(-n2cncc2C(=O)Nc2nnc(OCc3ccc(Cl)cc3)s2)cc1 [Example 12, N-(5-((4-chlorobenzyl)oxy)-1,3,4-thiadiazol-2-yl)-1-(4-methoxyphenyl)-1H-imidazole-5-carboxamide]
22 | 200 to 500 | O=C(Nc1nnc(OCc2ccc(Cl)cc2)s1)c1cncnc1N1CCOCC1 [Example 13, N-(5-((4-chlorobenzyl)oxy)-1,3,4-thiadiazol-2-yl)-4-morpholinopyrimidine-5-carboxamide]
23 | ≤ 200 | N#Cc1ccc(C(=O)Nc2nnc(OCc3ccc(Cl)cc3)s2)c(N2CCOCC2)n1 [Example 14, N-(5-((4-chlorobenzyl)oxy)-1,3,4-thiadiazol-2-yl)-6-cyano-2-morpholinonicotinamide]
24 | 1000 to 10000 | O=C(Nc1nnc(OCc2ccc(Br)cn2)s1)c1cccnc1N1CCOCC1 [Example 15]
25 | 1000 to 10000 | CC(=O)N1CCN(c2ncccc2C(=O)Nc2nnc(OCc3ccc(Cl)cc3)s2)CC1 [Example 16, 2-(4-acetylpiperazin-1-yl)-N-(5-((4-chlorobenzyl)oxy)-1,3,4-thiadiazol-2-yl)nicotinamide]
26 | 500 to 1000 | O=C(Nc1nnc(OCc2ccc(Cl)cc2)s1)c1cncn1-c1cccnc1 [Example 17, N-(5-((4-chlorobenzyl)oxy)-1,3,4-thiadiazol-2-yl)-1-(pyridin-3-yl)-1H-imidazole-5-carboxamide]
27 | 500 to 1000 | O=C(Nc1nnc(OCc2ccc(Cl)cc2)s1)c1cncn1-c1ccncc1 [Example 18, N-(5-((4-chlorobenzyl)oxy)-1,3,4-thiadiazol-2-yl)-1-(pyridin-4-yl)-1H-imidazole-5-carboxamide]
28 | 1000 to 10000 | O=C(Nc1nnc(OCc2cnc(Cl)cn2)s1)c1cccnc1N1CCOCC1 [Example 19, N-[5-[(5-chloropyrazin-2-yl)methoxy]-1,3,4-thiadiazol-2-yl]-2-(morpholin-4-yl)pyridine-3-carboxamide]
